Measurements from PMC2964311, “The Human Host Defense Peptide LL-37 Interacts with Neisseria meningitidis Capsular Polysaccharides and Inhibits Inflammatory Mediators Release” (PLoS ONE, 2010).
Converted amounts (≈) assume the structure as drawn. Read-outs that look alike come from different tables or passages of the source. Blank lines part the entries; values can stand above or below the molecule they belong to. Residues, ends and D or L forms follow the SMILES beside them. No end group written: not given here. *: point of attachment. Lauroyl = CCCCCCCCCCCC(=O)*

How the values were obtained:
[1] = tested on: RAW 264.7 macrophages; experiment: Nitric oxide release from RAW 264.7 macrophages induced with meningococcal CPS (Griess method); type: cell-based, murine; details: RAW 264, serogroup A CPS (laboratory NMA or vaccine grade MAPS 20 µg/ml) pre-incubated with 4 µg/ml analogs; nitrite after 24 h; Figure S1A, S1B
Protocol: (§1) Human THP-1 (macrophage-like cells) and murine RAW 264.7 (TLR4-sufficient), 23ScCr (TLR4-deficient) and HEK-TLR2/6/CD14 stably transfected cell lines were stimulated with meningococcal CPS polymers with or without pre-incubation with LL-37 and its analogs (Table 1). CPS polymers were purified from the LPS-deficient serogroup B Neisseria meningitidis lpxA mutant as well as other meningococcal serogroups A, B, C, W135 and Y. Purified CPS samples were freshly dissolved in pyrogen-free sterile H2O at 1 mg/ml stock concentration and vortexed for 2 min. Working CPS concentrations (ranging from 100 µg/ml to 50 ng/ml) were made in duplicate wells using sterile PBS by serial fold dilutions in the 96-well tissue culture plates (Becton Dickinson, Franklin Lakes, NJ) at 50 µl final volumes. Cationic peptides (2, 4 or 8 µg/ml) or PBS equivalent volumes were added to designated wells and pre-incubated for 30 min at 37°C. Freshly grown THP-1 cells and HEK-TLR2/6 transfected cells as well as murine macrophages, each adjusted to 10^6 cell/ml and 250 µl aliquots were dispensed into each well at final 250×10^3 cell density in the designated 96-well plates. The plates were incubated overnight at 37°C with 5% CO2 and humidity. Supernatants from stimulated cells were harvested and stored at −20°C until use.
Freshly grown adherent RAW 246.7 or 23ScCr (TLR4-deficient) macrophages were harvested, washed and re-suspended in Dulbecco's complete media, counted and adjusted to 10^6 cell/ml. 250 µl aliquots were then dispensed into each well of a 96-well plate at final 250×10^3 cell density prior to stimulation with purified CPS polymers with or without cationic peptides. The induced RAW 264.7 or 23ScCr macrophages were incubated overnight at 37°C with 5% CO2 and supernatants were harvested and saved. Nitric oxide release was quantified using the Greiss chemical method as previously described.

[2] = tested on: ScCr (TLR4-deficient) murine macrophages; experiment: Nitric oxide release from 23ScCr (TLR4-deficient) macrophages induced with meningococcal CPS (Griess method); type: cell-based; details: ScCr cells, 20 µg/ml CPS of serogroups A, B, C, Y, W135 pre-incubated 30 min with 4 µg/ml LL-37 analogs or 20 µg/ml ampicillin or erythromycin; overnight; Figure 6
Protocol: as §1, with “Freshly grown THP-1 cells and HEK-TLR2/6 transfected cells as well as murine macrophages, each adjusted to 10^6 cell/ml and 250 µl aliquots were dispensed into each well at final 250×10^3 cell density in the designated 96-well plates. The plates were incubated overnight at 37°C with 5% CO2 and humidity. Supernatants from stimulated cells were harvested and stored at −20°C until use.” left out
Freshly grown adherent RAW 246.7 or 23ScCr (TLR4-deficient) macrophages were harvested, washed and re-suspended in Dulbecco's complete media, counted and adjusted to 10^6 cell/ml. […] Nitric oxide release was quantified using the Greiss chemical method as previously described.

[3] = tested on: N. gonorrhoeae strain FA 19; details: for MIC activity against gonococci (in words): N. gonorrhoeae FA19
Protocol: The peptides were dissolved in 0.01 % (v/v) acetic acid and stored at −20°C prior to use. Antibacterial assays were performed as described previously and used N. gonorrhoeae strain FA 19. All assays were performed in triplicate and values are reported as the minimal inhibitory concentration (MIC).

[4] = tested on: purified CPS polymers; experiment: Neutralizing activity against purified CPS polymers (pro-inflammatory capacity of CPS); type: cell-based, Neisseria meningitidis; details: compared with LL-37
Protocol: as §1

[5] = tested on: THP-1 cells; experiment: TNFα release from THP-1 cells induced with meningococcal CPS pre-incubated with peptide (ELISA); type: cell-based, human
Protocol: as §1, with “Cationic peptides (2, 4 or 8 µg/ml) or PBS equivalent volumes were added to designated wells and pre-incubated for 30 min at 37°C.” left out
(§2) The cytokines TNFα, IL-6 and CXCL10 (IP-10), released from THP-1 cells, and IL-8, released from HEK-TLR2 transfected cells stimulated with meningococcal CPS polymers, were quantified by DuoSet ELISA (R&D Systems) as previously described.

[6] = tested on: NFκB; experiment: Inducible NFκB dual luciferase reporter in HEK-TLR2/6 cells stimulated with CPS-lpxA; type: cell-based, human; details: CPS-lpxA (20 µg/ml) pre-incubated with analogs (4 µg/ml) 30 min, induction 5 h, firefly normalized to Renilla, Figure 7A
Source text: To determine the signaling pathways induced upon meningococcal CPS recognition, a transcription factors array (Cignal Finder™ 10-Pathway Reporter Arrays, SABiosciences, Fredrick, MD) consisting of 10 dual-luciferase reporters assays were used according to the manufacturer instructions. Each of the 10 reporter assays encodes for an inducible transcription factor responsive firefly luciferase reporter and constitutively expressing Renilla construct in 40∶1 ratio. Briefly, DNA reporter master mixes were prepared in SureFect transfection reagent (SABiosciences) diluted in Opti-MEM media without serum or antibiotics and 25 µl/well were dispensed into 96-well white tissue culture plates. For reverse transfection, freshly grown cells were counted and adjusted to 1×10^6 cells/ml in Opti-MEM without serum or antibiotics. 100 µl of cells (100×10^3 cells/well) were laid over the DNA reporters in 96-well plates and incubated overnight at 37°C with 5% CO2. Transfection media were removed and replaced with 150 µl of fresh D-MEM supplemented with 10% FBS and incubated again overnight at 37°C. Cells were then induced with meningococcal CPS polymers or LOS doses for 5 h and dual-luciferase reporter activity was determined using Dual-Luciferase reporter assay system (Promega Corporation, Madison, WI) following the manufacturer instructions. […]

[7] = tested on: THP-1 cells; experiment: IL-6 release from THP-1 cells induced with meningococcal CPS pre-incubated with peptide (ELISA); type: cell-based, human; details: THP-1 cells, CPS-lpxA 100 µg to 50 ng/ml with 10 µg/ml synthetic analogs; Figure 3B
Protocol: as §1, with “Cationic peptides (2, 4 or 8 µg/ml) or PBS equivalent volumes were added to designated wells and pre-incubated for 30 min at 37°C.” left out, “Supernatants from stimulated cells were harvested and stored at −20°C until use.” left out
as §2

Molecule: CC1(C)S[C@@H]2[C@H](NC(=O)[C@H](N)c3ccccc3)C(=O)N2[C@H]1C(=O)O [ampicillin]
- Inhibition of CPS polymers (nitric oxide release) [1]: this was not seen
- Nitric oxide release induced by various meningococcal CPS [2]: this inhibition was not observed

Molecule: LLGKFFKKSKKKIGKKFKKIVQKIKKFLKNLVPKTKS [LL-37 K]
- MIC activity against gonococci (in words) [3]: retained excellent MIC activity
- MIC ([3]; strain FA 19): 7.8 µg/mL
- Neutralizing activity against purified CPS polymers [4]: did not enhance the neutralizing activity

- MIC ([3]; strain FA 19): >1000 µg/mL
Molecule: LLGDFFRKSKEKIGKEF [LL-1-17]

- MIC ([3]; strain FA 19): 3.9 µg/mL
Molecule: FKRIVQRIKDFLRNLV [LL-17-32]

- MIC ([3]; strain FA 19): 7.8 µg/mL
Molecule: EKIGKEFKRIVQRIKDFLRNLVPRTES [LL-11-37]

Molecule: CC[C@H]1OC(=O)[C@H](C)[C@@H](O[C@H]2C[C@@](C)(OC)[C@@H](O)[C@H](C)O2)[C@H](C)[C@@H](O[C@@H]2O[C@H](C)C[C@H](N(C)C)[C@H]2O)[C@](C)(O)C[C@@H](C)C(=O)[C@H](C)[C@@H](O)[C@]1(C)O [erythromycin]
- Nitric oxide release induced by various meningococcal CPS [2]: this inhibition was not observed

- MIC ([3]; strain FA 19): >1000 µg/mL
Molecule: LLGDFFRASAEAIGAEFARIVQRIADFLRNLVPRTES [LL-37 K/A]

Molecule: Polymyxin B
- TNFα release ([5]; THP-1 cells induced with the CPS-lpxA-analog complexes of the NFκB experiment, Figure 7B): decreased TNFα release
- Inhibition of CPS polymers (nitric oxide release) [1]: inhibited CPS polymers
- CPS induced NFκB induction (luciferase reporter) [6]: able to inhibit

Molecule: LLGDFFRESEEEIGEEFERIVQRIEDFLRNLVPRTES [LL-37 K/E]
- MIC ([3]; N. gonorrhoeae FA19 (non-encapsulated), assays in triplicate): > 1000 µg/mL
- Neutralizing activity against purified CPS polymers [4]: reduced neutralizing activity

- MIC ([3]; strain FA 19): 3.9 µg/mL
Molecule: FKRIVQRIKNFLRNLV [LL-17-32 D/N]

Molecule: LLGRFFRRSRRRIGRRFRRIVQRIRRFLRNLVPRTRS [LL-37 R]
- MIC activity against gonococci (in words) [3]: retained excellent MIC activity
- MIC ([3]; strain FA 19): 15.6 µg/mL
- Neutralizing activity against purified CPS polymers [4]: did not enhance the neutralizing activity

- MIC ([3]; strain FA 19): 125 µg/mL
Molecule: LLGDFFDKSKEKIGKEFKDIVQDIKDFLDNLVPDTES [LL-37 R/D]

Molecule: LLGDFFDESEEEIGEEFEDIVQDIEDFLDNLVPDTES [LL-37 R/D-K/E]
- MIC ([3]; strain FA 19): >1000 µg/mL

Molecule: CCCCCCCCCCCC(=O)N[C@@H](Cc1ccccc1)C(=O)N[C@@H](CCCCN)C(=O)N[C@@H](CCCNC(=N)N)C(=O)N[C@H](C(=O)N[C@H](C(=O)N[C@@H](CCC(N)=O)C(=O)N[C@@H](CCCNC(=N)N)C(=O)N[C@H](C(=O)N[C@@H](CCCCN)C(=O)N[C@@H](CC(N)=O)C(=O)N[C@@H](Cc1ccccc1)C(=O)N[C@@H](CC(C)C)C(=O)N[C@@H](CCCNC(=N)N)C(=O)N[C@@H](CC(N)=O)C(=O)N[C@@H](CC(C)C)C(=O)N[C@H](C(=O)O)C(C)C)[C@@H](C)CC)C(C)C)[C@@H](C)CC [C12LL-17-32 D/N] (Lauroyl-FKRIVQRIKNFLRNLV-OH; C-terminus assumed)
- MIC ([3]; strain FA 19): 3.9 µg/mL (≈ 1.75 µM)
- Inhibition of TNFα release (interaction with CPS polymers) ([5]; THP-1 cells, CPS-lpxA 100 µg to 50 ng/ml with 10 µg/ml synthetic analogs, Figure 3A): enhanced interaction with meningococcal CPS polymers
- Inhibition of IL-6 release (interaction with CPS polymers) [7]: enhanced interaction with meningococcal CPS polymers
